For assay [1], the target named is T1, AKT1 E17K (Homo sapiens, UniProt P31749, E17K).
T1 construct: expressed in transfected cells; host or cells: HEK293
The experiment in a line: Live cell AKT1 E17K target engagement by NanoBRET competitive probe displacement. It counts as cell-based. As to conditions: HEK293 cells transfected with kinase-NanoLuciferase fusion, 2 h at 37° C. Here is the method: Determining Live Cell AKT1 E17K, AKT1 WT, and AKT2 Target Engagement by NanoBRET Competitive Probe Displacement.
Live cell target engagement assays were performed as described (Vasta, J. D. et al. Cell Chem Biol 2018, 25(11), 206-214). Briefly, HEK293 cells were transfected with plasmids encoding kinase-NanoLuciferase fusion proteins overnight. Cells were then treated with serial dilutions of compound and an ˜EC50 concentration of fluorescently-tagged ATP-competitive tracer (Promega). After incubation for 2 h at 37° C., luciferase substrate and extracellular luciferase inhibitor were added to all wells, and luminescent intensity at 460 nm and 600 nm were measured on a multimode plate-reader. The ratio of E600/E460 was calculated to give the tracer engagement signal (BRET). IC50 values were calculated by fitting BRET values to a log(inhibitor) vs. response Hill equation.
Background: In BRET a luciferase serves as donor, and the signal depends on an acceptor being close.

Assay [2] relates to LAPC4 prostate cancer cells. The experiment in a line: Antiproliferative effects in LAPC4 cells (CellTiter Glo). In kind it is cell-based. Conditions: LAPC4 cells (AKT1 E17K allele), read-out: LAPC4 proliferation IC50. Here is the method: Antiproliferative Effects in LAPC4 Cells.
LAPC4 prostate cancer cells (Klein, K. A. et al. Nat Med 1997, 3, 402-408), which express the AKT1 E17K allele, were grown in IMDM media (Hyclone) supplemented with 12% FBS+1% P/S. To assess compound effects on growth, 1,000 cells/well were seeded in 384 well assay plates, incubated with compound dilutions dissolved in DMSO. After 72 h, intracellular ATP content was assessed with CellTiter Glo reagent (Promega) according to the manufacturer's instructions. IC50 values were calculated by fitting luminescence values to a log(inhibitor) vs. response Hill equation.
(ATP-based viability assays read luminescence as a measure of living cells.)

Like-named read-outs stand apart in the source and are kept apart here. Bounds are passed on as bounds.

T1 sequence (P31749 whole entry E17K): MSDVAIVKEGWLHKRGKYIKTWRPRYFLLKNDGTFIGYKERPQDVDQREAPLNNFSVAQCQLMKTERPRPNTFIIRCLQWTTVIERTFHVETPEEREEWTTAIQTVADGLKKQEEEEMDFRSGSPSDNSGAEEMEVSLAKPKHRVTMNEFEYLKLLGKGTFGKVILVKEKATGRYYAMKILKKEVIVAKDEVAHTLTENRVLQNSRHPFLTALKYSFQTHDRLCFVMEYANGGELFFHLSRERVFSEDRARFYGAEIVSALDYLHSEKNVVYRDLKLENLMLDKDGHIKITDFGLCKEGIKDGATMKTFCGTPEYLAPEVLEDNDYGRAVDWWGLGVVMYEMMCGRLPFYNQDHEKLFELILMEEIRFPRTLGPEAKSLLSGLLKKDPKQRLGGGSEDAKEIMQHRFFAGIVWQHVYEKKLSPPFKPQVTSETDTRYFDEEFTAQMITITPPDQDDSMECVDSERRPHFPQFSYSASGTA

Consider `C=CC(=O)N1CCC(N[C@H]2CCc3cc(-n4c(-c5cccnc5N)nc5ccc(N6C7CCC6COC7)nc54)ccc32)CC1` [Example 278, 1-(4-{[(1S)-5-[2-(2-aminopyridin-3-yl)-5-{3-oxa-8-azabicyclo[3.2.1]octan-8-yl}imidazo[4,5-b]pyridin-3-yl]-2,3-dihydro-1H-inden-1-yl]amino}piperidin-1-yl)prop-2-en-1-one], for which the IC50 in assay [1] was determined as 164 nM; in assay [2] (Homo sapiens, LAPC4, 72 h) it was 1850 nM.

In the case of `C=CC(=O)N1CCN(C2CCc3cc(-n4c(-c5cccnc5N)nc5ccc(-n6cccn6)nc54)ccc32)CC1` (centres unmarked) [Example 204, 1-(4-{5-[2-(2-aminopyridin-3-yl)-5-(pyrazol-1-yl)imidazo[4,5-b]pyridin-3-yl]-2,3-dihydro-1H-inden-1-yl}piperazin-1-yl)prop-2-en-1-one], the IC50 stood at 287 nM in assay [1] and 3820 nM in assay [2] (Homo sapiens, LAPC4, 72 h).

On to `C=CC(=O)N1CC(F)C(N[C@H]2CCc3cc(-n4c(-c5cccnc5N)nc5ccc(-n6cccn6)nc54)ccc32)C(F)C1` (single isomer, unassigned) [Example 223, 1-((3*,5*)-4-(((S)-5-(2-(2-aminopyridin-3-yl)-5-(1H-pyrazol-1-yl)-3H-imidazo[4,5-b]pyridin-3-yl)-2,3-dihydro-1H-inden-1-yl)amino)-3,5-difluoropiperidin-1-yl)prop-2-en-1-one], for which the IC50 in assay [1] is above 1000 nM; in assay [2] (72 h), above 10000 nM.

Consider `C=CC(=O)N1CCC(N[C@H]2CCc3cc(-n4c(-c5ccccc5C#N)nc5ccc(-n6cccn6)nc54)ccc32)CC1` [Example 284, 2-{3-[(1S)-1-{[1-(prop-2-enoyl)piperidin-4-yl]amino}-2,3-dihydro-1H-inden-5-yl]-5-(pyrazol-1-yl)imidazo[4,5-b]pyridin-2-yl}benzonitrile], for which the IC50 was 273 nM in assay [1] and 7210 nM in assay [2] (Homo sapiens, LAPC4, 72 h).

Take `C=CC(=O)N1CC(F)C(N[C@H]2CCc3cc(-n4c(-c5cccnc5N)nc5ccc(-n6cccn6)nc54)ccc32)C(F)C1` (single isomer, unassigned) [Example 222, 1-((3*,5*)-4-(((S)-5-(2-(2-aminopyridin-3-yl)-5-(1H-pyrazol-1-yl)-3H-imidazo[4,5-b]pyridin-3-yl)-2,3-dihydro-1H-inden-1-yl)amino)-3,5-difluoropiperidin-1-yl)prop-2-en-1-one]: the IC50 in assay [1] was above 1000 nM; in assay [2] (72 h), above 10000 nM.

For `C=CC(=O)N1CCC(N[C@@H]2c3ccc(-n4c(-c5cccnc5N)nc5ccc(-n6cccn6)nc54)cc3CC2C)CC1` (single isomer, unassigned) [Example 182, 1-(4-(((1S,2*)-5-(2-(2-aminopyridin-3-yl)-5-(1H-pyrazol-1-yl)-3H-imidazo[4,5-b]pyridin-3-yl)-2-methyl-2,3-dihydro-1H-inden-1-yl)amino)piperidin-1-yl)prop-2-en-1-one], the figures for the IC50 in assay [1] and in assay [2] (72 h) were 152 nM and 3160 nM, respectively.

In the case of `C=CC(=O)N1Cc2cccc(C(=O)N[C@H]3CCc4cc(-n5c(-c6cccnc6N)nc6ccc(-n7cccn7)nc65)ccc43)c2C1` [Example 266, (S)-2-acryloyl-N-(5-(2-(2-aminopyridin-3-yl)-5-(1H-pyrazol-1-yl)-3H-imidazo[4,5-b]pyridin-3-yl)-2,3-dihydro-1H-inden-1-yl)isoindoline-4-carboxamide], the IC50 in assay [1] came to 3.34 nM; in assay [2] (Homo sapiens, LAPC4, 72 h), 4.4 nM.

Consider `C=CC(=O)N1CC(F)C(N[C@H]2CCc3cc(-n4c(-c5cccnc5N)nc5ccc(-n6cccn6)nc54)ccc32)C(F)C1` (single isomer, unassigned) [Example 221, 1-((3*,4*,5*)-4-(((S)-5-(2-(2-aminopyridin-3-yl)-5-(1H-pyrazol-1-yl)-3H-imidazo[4,5-b]pyridin-3-yl)-2,3-dihydro-1H-inden-1-yl)amino)-3,5-difluoropiperidin-1-yl)prop-2-en-1-one], for which the IC50 in assay [1] is 567 nM; in assay [2] (72 h), above 10000 nM.

On to `C=CC(=O)N1CCCC(c2cn([C@H]3CCc4cc(-n5c(-c6cccnc6N)nc6ccc(-n7cccn7)nc65)ccc43)nn2)C1` (single isomer, unassigned) [Example 167, 1-((*)-3-(1-((S)-5-(2-(2-aminopyridin-3-yl)-5-(1H-pyrazol-1-yl)-3H-imidazo[4,5-b]pyridin-3-yl)-2,3-dihydro-1H-inden-1-yl)-1H-1,2,3-triazol-4-yl)piperidin-1-yl)prop-2-en-1-one], for which the IC50 in assay [1] is 37.1 nM; in assay [2] (Homo sapiens, LAPC4, 72 h), 479 nM.

`C=CC(=O)N1CCC(N[C@H]2CCc3cc(-n4c(-c5cccnc5N)nc5ccc(-c6ccccc6)nc54)ccc32)CC1` [Example 209, (S)-1-(4-((5-(2-(2-aminopyridin-3-yl)-5-phenyl-3H-imidazo[4,5-b]pyridin-3-yl)-2,3-dihydro-1H-inden-1-yl)amino)piperidin-1-yl)prop-2-en-1-one]: the IC50 was determined as 2.29 nM in assay [1] and 17 nM in assay [2] (Homo sapiens, LAPC4, 72 h).

Turning to `C=CC(=O)N1CCC(N[C@H]2CCc3cc(-n4c(-c5cccnc5N)nc5ccc(CN6CCOCC6)nc54)ccc32)CC1` [Example 260, 1-(4-{[(1S)-5-[2-(2-aminopyridin-3-yl)-5-(morpholin-4-ylmethyl)imidazo[4,5-b]pyridin-3-yl]-2,3-dihydro-1H-inden-1-yl]amino}piperidin-1-yl)prop-2-en-1-one], the IC50 in assay [1] was above 1000 nM; in assay [2] (Homo sapiens, LAPC4, 72 h) it was above 10000 nM.

As to `C=CC(=O)N1CCC(N[C@H]2CCc3cc(-n4c(-c5cccnc5N)nc5ccc(C6COC6)nc54)ccc32)CC1` [Example 279, 1-(4-{[(1S)-5-[2-(2-aminopyridin-3-yl)-5-(oxetan-3-yl)imidazo[4,5-b]pyridin-3-yl]-2,3-dihydro-1H-inden-1-yl]amino}piperidin-1-yl)prop-2-en-1-one], the IC50 in assay [1] came out at 168 nM; in assay [2] (Homo sapiens, LAPC4, 72 h) it was 1570 nM.

In the case of `C=CC(=O)N1CCC(N[C@H]2CC(F)(F)c3cc(-n4c(-c5cccnc5N)nc5ccc(-n6cccn6)nc54)ccc32)CC1` [Example 305, (S)-1-(4-((5-(2-(2-aminopyridin-3-yl)-5-(1H-pyrazol-1-yl)-3H-imidazo[4,5-b]pyridin-3-yl)-3,3-difluoro-2,3-dihydro-1H-inden-1-yl)amino)piperidin-1-yl)prop-2-en-1-one], the IC50 turned out to be 63.4 nM in assay [1] and 2740 nM in assay [2] (Homo sapiens, LAPC4, 72 h).

With `C=CC(=O)N1C[C@H]2COC[C@@H](C1)C2N[C@H]1CCc2cc(-n3c(-c4cccnc4N)nc4ccc(C5CC5)nc43)ccc21` (single isomer, unassigned) [Example 171, 1-((1R,5S,9*)-9-(((S)-5-(2-(2-aminopyridin-3-yl)-5-cyclopropyl-3H-imidazo[4,5-b]pyridin-3-yl)-2,3-dihydro-1H-inden-1-yl)amino)-3-oxa-7-azabicyclo[3.3.1]nonan-7-yl)prop-2-en-1-one], the IC50 in assay [1] is above 1000 nM; in assay [2] (72 h), 6610 nM.

On to `C=CC(=O)N1CC(F)C(N[C@H]2CCc3cc(-n4c(-c5cccnc5N)nc5ccc(-n6cccn6)nc54)ccc32)C(F)C1` (single isomer, unassigned) [Example 220, 1-((3*,4*,5*)-4-(((S)-5-(2-(2-aminopyridin-3-yl)-5-(1H-pyrazol-1-yl)-3H-imidazo[4,5-b]pyridin-3-yl)-2,3-dihydro-1H-inden-1-yl)amino)-3,5-difluoropiperidin-1-yl)prop-2-en-1-one], for which the IC50 in assay [1] was 380 nM; in assay [2] (Homo sapiens, LAPC4, 72 h), above 10000 nM.

Regarding `C=CC(=O)N1CCC(N[C@H]2CCc3cc(-n4c(-c5cccnc5N)nc5ccc(-n6cccn6)nc54)ccc32)C[C@H]1C(F)F` (single isomer, unassigned) [Example 215, 1-((2S,4*)-4-(((S)-5-(2-(2-aminopyridin-3-yl)-5-(1H-pyrazol-1-yl)-3H-imidazo[4,5-b]pyridin-3-yl)-2,3-dihydro-1H-inden-1-yl)amino)-2-(difluoromethyl)piperidin-1-yl)prop-2-en-1-one], the IC50 in assay [1] turned out to be 4.56 nM; in assay [2] (72 h), 42.3 nM.

Regarding `C=CC(=O)N1CCC(N[C@@H]2c3c(F)cc(-n4c(-c5cccnc5N)nc5ccc(-n6cccn6)nc54)cc3CC2F)CC1` (single isomer, unassigned) [Example 341, 1-(4-(((1R,2*)-5-(2-(2-aminopyridin-3-yl)-5-(1H-pyrazol-1-yl)-3H-imidazo[4,5-b]pyridin-3-yl)-2,7-difluoro-2,3-dihydro-1H-inden-1-yl)amino)piperidin-1-yl)prop-2-en-1-one], the IC50 in assay [1] turned out to be 80.3 nM.

`C=CC(=O)N1CCC(N[C@@H]2c3ccc(-n4c(-c5cccnc5N)nc5ccc(C6CC6)nc54)cc3CC2F)CC1` (single isomer, unassigned) [Example 202, 1-(4-(((1R,2*)-5-(2-(2-aminopyridin-3-yl)-5-cyclopropyl-3H-imidazo[4,5-b]pyridin-3-yl)-2-fluoro-2,3-dihydro-1H-inden-1-yl)amino)piperidin-1-yl)prop-2-en-1-one]: the IC50 turned out to be 111 nM in assay [1] and 3090 nM in assay [2] (Homo sapiens, LAPC4, 72 h).

The values are drawn from patent publication US12570655B2, “Cysteine covalent modifiers of AKT1 and uses thereof” (Terremoto Biosciences, Inc., priority 2023, dated 2026).
